Experimental data: patent publication US20100120700A1, “METHODS AND COMPOSITIONS FOR TREATING CERVICAL CANCER” (priority 2000, published 2010)
Where “and” joins values, the source holds several entries; their conditions need not be identical. Equal entries are not always repeated.

Assays:
FLJ12615 domain 1 = target: T1, FLJ12615 domain 1 (Homo sapiens, UniProt Q8N3R9); assay: G assay PDZ-PL binding; conditions: peptide 10 uM, protein 5
T1 construct: made in house; host or cells: E. coli (DH5alpha, BL21 or JM109)
Method: (§1) (1) A PDZ-domain polypeptide is bound to a surface, e.g. a protein binding surface. In a preferred embodiment, a GST/PDZ fusion protein containing one or more PDZ domains is bound to a polystyrene 96-well plate. […] In one embodiment, the GST/PDZ fusion protein is bound via an anti-GST antibody that is coated onto the 96-well plate. Adequate binding to the plate can be achieved when: • a. 100 uL per well of 5 ug/mL goat anti-GST polyclonal antibody (Pierce) in PBS is added to a polystyrene 96-well plate (e.g., Num Polysorb) at 4° C. for 12 hours. • b. The plate is blocked by addition of 200 uL per well of PBS/BSA for 2 hours at 4° C. • c. The plate is washed 3 times with PBS. • d. 50 uL per well of 5 ug/mL GST/PDZ fusion protein) or, as a negative control, GST polypeptide alone (i.e. not a fusion protein) in PBS/BSA is added to the plate for 2 hours at 4° C. • e. The plate is again washed 3 times with PBS. […]
(§2) (3) The binding of the biotinylated peptide to the GST/PDZ fusion protein surface can be detected using a variety of methods and detectors known to one of skill in the art. In one embodiment, 100 uL per well of 0.5 ug/mL streptavidin-horse radish peroxidase (HRP) conjugate dissolved in BSA/PBS is added and allowed to react for 20 minutes at 4° C. The plate is then washed 5 times with 50 mM Tris pH 8.0 containing 0.2% Tween 20, and developed by addition of 100 uL per well of HRP-substrate solution (TMB, Dako) for 20 minutes at room temperature (RT). The reaction of the HRP and its substrate is terminated by addition of 100 uL per well of 1M sulfuric acid, and the absorbance of each well of the plate is read at 450 nm.
(§3) (4) Specific binding of a PL peptide and a PDZ domain polypeptide is determined by comparing the signal from the well(s) in which the PL peptide and PDZ domain polypeptide are combined, with the background signal(s). The background signal is the signal found in the negative control(s). Typically a specific or selective reaction will be at least twice background signal, more typically more than 5 times background, and most typically 10 or more times the background signal. In addition, a statistically significant reaction will involve multiple measurements of the reaction with the signal and the background differing by at least two standard errors, more typically four standard errors, and most typically six or more standard errors. Correspondingly, a statistical test (e.g. a T-test) comparing repeated measurements of the signal with-repeated measurements of the background will result in a p-value<0.05, more typically a p-value<0.01, and most typically a p-value<0.001 or less. As noted, in an embodiment of the “G” assay, the signal from binding of a given PL peptide to immobilized (surface bound) GST polypeptide alone is one suitable negative control (sometimes referred to as “B 1”). Because all measurement are done in multiples (i.e. at least duplicate) the arithmetic mean (or, equivalently, average.) of several measurements is used in determining the binding, and the standard error of the mean is used in determining the probable error in the measurement of the binding. The standard error of the mean of N measurements equals the square root of the following: the sum of the squares of the difference between each measurement and the mean, divided by the product of (N) and (N−1). Thus, in one embodiment, specific binding of the PDZ protein to the platebound peptide is determined by comparing the mean signal (“mean S”) and standard error of the signal (“SE”) for a particular PL-PDZ combination with the mean B1.
(§4) For convenience, the assay conditions described in this section are referred to as the “G’ assay” and the “G” assay,” with the specific conditions described in the preceding section on G assays being referred to as the “G° assay.” The “G′ assay” is identical to the “G° assay” except at step (2) the peptide concentration is 10 uM instead of 20 uM. […]

MAGI 1 domain 6 = target: T2, MAGI 1 domain 6 (Homo sapiens, UniProt Q96QZ7); assay: G assay PDZ-PL binding; conditions: peptide 10 uM, protein 5
T2 construct: made in house; host or cells: E. coli (DH5alpha, BL21 or JM109), vector pGEX-3X
Method: as §1, §2, §3, §4

MUPP1 domain 7 = target: T3, MUPP1 domain 7 (Homo sapiens, UniProt O75970); assay: G assay PDZ-PL binding; conditions: peptide 10 uM, protein 5
T3 construct: made in house; host or cells: E. coli (DH5alpha, BL21 or JM109)
Method: as §1, §2, §3, §4

Magi2 domain 1 = target: T4, Magi2 domain 1 (Homo sapiens, UniProt Q86UL8); assay: G assay PDZ-PL binding; conditions: vs GST only well, peptide 10 uM, protein 5
T4 construct: made in house; host or cells: E. coli (DH5alpha, BL21 or JM109)
Method: as §1, §2, §3, §4

DLG2 (PDZ3) = DLG2 (PDZ3) (Homo sapiens, UniProt Q15700); conditions: E6 peptide titrated against constant GST-PDZ; DLG2 (3)
Method: (§5) (1) A GST/PDZ fusion protein, as well as GST alone as a negative control, are bound to a surface (e.g., a 96-well plate) and the surface blocked and washed as described supra for the “G” assay.
(§6) (2) 50 uL per well of a solution of biotinylated PL peptide (e.g. as shown in TABLE 2) is added to the surface in increasing concentrations in PBS/BSA (e.g. at 0.1 uM, 0.33 uM, 1 uM, 3.3 uM, 10 uM, 33 uM, and 100 uM). In one embodiment, the PL peptide is allowed to react with the bound GST/PDZ fusion protein (as well as the GST alone negative control) for 10 minutes at 4° C. followed by 20 minutes at 25° C. The plate is washed 3 times with ice cold PBS to remove unbound labeled peptide.
(§7) (3) The binding of the PL peptide to the immobilized PDZ-domain polypeptide is detected as described supra for the “G” assay.
(§8) (4) For each concentration of peptide, the net binding signal is determined by subtracting the binding of the peptide to GST alone from the binding of the peptide to the GST/PDZ fusion protein. The net binding signal is then plotted as a function of ligand concentration and the plot is fit (e.g. by using the Kaleidagraph software package curve fitting algorithm; Synergy Software) to the following equation, where “Signal[ligand]” is the net binding signal at PL peptide concentration “[ligand],” “Kd” is the apparent affinity of the binding event, and “Saturation Binding” is a constant determined by the curve fitting algorithm to optimize the fit to the experimental data: […]

Magi1C (PDZ2) = Magi1C (PDZ2) (Homo sapiens, UniProt Q96QZ7); conditions: E6 peptide titrated against constant GST-PDZ; Table 10 prints Magi1C (1)
Method: as §5, §6, §7, §8

Magi3 (PDZ1) = Magi3 (PDZ1) (Homo sapiens, UniProt Q5TCQ9); conditions: E6 peptide titrated against constant GST-PDZ; Magi3 (1)
Method: as §5, §6, §7, §8

T2 sequence (Q96QZ7 1143-1233): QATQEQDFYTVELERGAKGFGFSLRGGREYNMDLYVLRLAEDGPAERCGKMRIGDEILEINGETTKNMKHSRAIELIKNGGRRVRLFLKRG
T3 sequence (O75970 with tags, fused parts or gaps): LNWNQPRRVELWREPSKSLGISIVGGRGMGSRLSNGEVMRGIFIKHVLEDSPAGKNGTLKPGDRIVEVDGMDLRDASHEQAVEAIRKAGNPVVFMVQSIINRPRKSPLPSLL
T1 sequence (Q8N3R9 247-343): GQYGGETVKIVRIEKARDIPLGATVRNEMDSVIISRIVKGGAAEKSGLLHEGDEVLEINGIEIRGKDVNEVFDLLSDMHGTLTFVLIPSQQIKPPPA
T4 sequence (Q86UL8 408-511): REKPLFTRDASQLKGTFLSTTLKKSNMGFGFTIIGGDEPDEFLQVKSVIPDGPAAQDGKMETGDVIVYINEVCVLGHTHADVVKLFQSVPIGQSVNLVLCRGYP
Chain of Magi1C (PDZ2) (Q96QZ7 463-566): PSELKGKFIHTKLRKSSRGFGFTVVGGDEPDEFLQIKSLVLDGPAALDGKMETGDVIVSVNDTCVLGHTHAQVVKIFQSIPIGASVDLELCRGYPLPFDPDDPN
Chain of Magi3 (PDZ1) (Q5TCQ9 401-502): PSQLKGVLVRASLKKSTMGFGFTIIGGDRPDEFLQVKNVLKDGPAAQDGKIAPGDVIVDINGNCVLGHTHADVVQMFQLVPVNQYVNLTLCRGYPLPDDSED

“20 mer peptide corresponding to the C-terminus of HPV16 E6 (PDZ ligand), biotinylated in binding assays; ends SSRTRRETQL (SEQ ID NO: 13) [HPV E6 #16]” was tested, and the “Ave OD” value (FLJ12615 domain 1; A450 nm) was 0.4605, the “OD S/N” value (FLJ12615 domain 1; vs GST only well) was 2.24 and the “Ave OD” value (MAGI 1 domain 6; A450 nm) was 0.71. For the same substance, the “OD S/N” value (MAGI 1 domain 6; vs GST only well) was 2.47, the “Ave OD” value (MUPP1 domain 7; A450 nm) was 0.498 and the “OD S/N” value (MUPP1 domain 7; vs GST only well) was 1.61. The “OD S/N” value (Magi2 domain 1) was 11.59 and 7.23, the EC50 (DLG2 (PDZ3)) was 1600 nM and the EC50 (Magi1C (PDZ2)) was 56 nM. It also gave an EC50 (Magi3 (PDZ1)) of 310 nM.
